We go through 21 compounds from PMC3004370, “PI3Kα Inhibitors That Inhibit Metastasis” (Oncotarget, 2010).

A word on the IC50: it is the concentration that inhibits the measured activity by half. Low readings indicate greater potency in that assay, high ones weaker potency in that assay.

The target of one assay is T1, p110γ (Homo sapiens, UniProt P48736).
T1 construct: His-tag; made in house; host or cells: Sf9 insect cells (baculovirus)
In words: Biochemical PI3K inhibition assay, p110γ. To be noted: 10 μM ATP, two hours; no regulatory subunit. An excerpt: (§1) cDNA clones of PIK3CA, PIK3CB and PIK3CG were obtained from Origene (Rockville, MD, USA). PIK3CD was generously provided by Novartis Pharmaceuticals. The cDNA clones were sub-cloned into pFastBac His-Tag (Invitrogen, Carlsbad, CA, USA) and baculovirus clones were generated by the Bac-to-Bac expression system (Invitrogen). p110α, p110β and p110δ were co-expressed in Sf9 insect cells (Invitrogen) with a nSH2-iSH2 fragment of the regulatory subunit p85 comprising AA residues 322 to 600 [4]. p110γ was expressed without a regulatory subunit. Sf9 cells were lysed in a buffer containing 50 mM sodium phosphate, pH 8.0, 400 mM NaCl, 5% glycerol, 1% Triton X-100, 10 mM 2-mercaptoethanol, 1 mM orthovanadate, 10 mM imidazole, and sonicated on ice for 1 minute. Proteins were purified by adding Ni-NTA Superflow beads (Qiagen, Valencia, CA, USA) to the lysate and subsequent rolling for 30 min at 4°C. Beads were washed twice with 50 mM phosphate buffer, pH 8.0, 0.5 M NaCl, 50 mM Imidazole, 2 mM DTT and eluted in the same buffer but with 200 mM imidazole. Purified PI3K's were mixed 1:1 with glycerol and stored at -20°C.
(§2) J-series inhibitors were dissolved, serial diluted in DMSO and deposited into 96 well plates at a final DMSO concentration of 1%. We used a novel assay to determine their potency and selectivity. In brief, micelles of 2.5 μg L-a-Phosphatidylinositol and 2.5 μg 1,2-Diacyl-sn-glycero-3-phospho-L-serine were formed by sonication, mixed with the individual PI3K isoforms and added to the drug dilutions in a reaction buffer containing 10 mM HEPES, 25 mM NaCl, 0.125 μg/μl BSA, and 2 mM BME (final concentrations). Reactions were timed after the addition of 10 μM ATP with 40 μCi/ml γ-32P-ATP (PerkinElmer, Waltham, MA, USA) and 2 mM MgCl2 (all final concentrations). The reactions were terminated after two hours by the addition of 2 N HCl and the lipids extracted with 1:1 MetOH/Chloroform. Radio-labeled phosphatidyl-inositol-3-phosphate in the extracted organic fraction was quantified after the addition of Microscint O (PerkinElmer) using a TopCount 96 well plate scintillation counter (PerkinElmer). IC50 concentrations and inhibition curves were calculated using Prism 5 (GraphPad Software, La Jolla, CA).

For the next assay, the target named is T2, p110β (Homo sapiens, UniProt P42338).
T2 construct: His-tag; made in house; host or cells: Sf9 insect cells (baculovirus)
In words: Biochemical PI3K inhibition assay, p110β. The note with it: 10 μM ATP, two hours.
Description: as §1, §2

For another assay, the target named is T3, p110α (Homo sapiens, UniProt P42336).
T3 construct: His-tag; made in house; host or cells: Sf9 insect cells (baculovirus)
In words: Biochemical PI3K inhibition assay, p110α. To be noted: for IC50: 10 μM ATP, two hours; for effect of substitution on PI3Kα potency/selectivity (in words): SAR discussion. Here is the method: PIK3CD was generously provided by Novartis Pharmaceuticals. […] Sf9 cells were lysed in a buffer containing 50 mM sodium phosphate, pH 8.0, 400 mM NaCl, 5% glycerol, 1% Triton X-100, 10 mM 2-mercaptoethanol, 1 mM orthovanadate, 10 mM imidazole, and sonicated on ice for 1 minute. Proteins were purified by adding Ni-NTA Superflow beads (Qiagen, Valencia, CA, USA) to the lysate and subsequent rolling for 30 min at 4°C. Beads were washed twice with 50 mM phosphate buffer, pH 8.0, 0.5 M NaCl, 50 mM Imidazole, 2 mM DTT and eluted in the same buffer but with 200 mM imidazole. Purified PI3K's were mixed 1:1 with glycerol and stored at -20°C.
as §2, with “In brief, micelles of 2.5 μg L-a-Phosphatidylinositol and 2.5 μg 1,2-Diacyl-sn-glycero-3-phospho-L-serine were formed by sonication, mixed with the individual PI3K isoforms and added to the drug dilutions in a reaction buffer containing 10 mM HEPES, 25 mM NaCl, 0.125 μg/μl BSA, and 2 mM BME (final concentrations).” left out

The next assay concerns the target T4, p110δ (Homo sapiens, UniProt O00329).
T4 construct: His-tag; made in house; host or cells: Sf9 insect cells (baculovirus)
Nature of the assay: Biochemical PI3K inhibition assay, p110δ. The note with it: 10 μM ATP, two hours.
Description: as §1, §2

Structures can show the parent of a compound that is named as a salt.

T3 sequence (P42336 whole entry): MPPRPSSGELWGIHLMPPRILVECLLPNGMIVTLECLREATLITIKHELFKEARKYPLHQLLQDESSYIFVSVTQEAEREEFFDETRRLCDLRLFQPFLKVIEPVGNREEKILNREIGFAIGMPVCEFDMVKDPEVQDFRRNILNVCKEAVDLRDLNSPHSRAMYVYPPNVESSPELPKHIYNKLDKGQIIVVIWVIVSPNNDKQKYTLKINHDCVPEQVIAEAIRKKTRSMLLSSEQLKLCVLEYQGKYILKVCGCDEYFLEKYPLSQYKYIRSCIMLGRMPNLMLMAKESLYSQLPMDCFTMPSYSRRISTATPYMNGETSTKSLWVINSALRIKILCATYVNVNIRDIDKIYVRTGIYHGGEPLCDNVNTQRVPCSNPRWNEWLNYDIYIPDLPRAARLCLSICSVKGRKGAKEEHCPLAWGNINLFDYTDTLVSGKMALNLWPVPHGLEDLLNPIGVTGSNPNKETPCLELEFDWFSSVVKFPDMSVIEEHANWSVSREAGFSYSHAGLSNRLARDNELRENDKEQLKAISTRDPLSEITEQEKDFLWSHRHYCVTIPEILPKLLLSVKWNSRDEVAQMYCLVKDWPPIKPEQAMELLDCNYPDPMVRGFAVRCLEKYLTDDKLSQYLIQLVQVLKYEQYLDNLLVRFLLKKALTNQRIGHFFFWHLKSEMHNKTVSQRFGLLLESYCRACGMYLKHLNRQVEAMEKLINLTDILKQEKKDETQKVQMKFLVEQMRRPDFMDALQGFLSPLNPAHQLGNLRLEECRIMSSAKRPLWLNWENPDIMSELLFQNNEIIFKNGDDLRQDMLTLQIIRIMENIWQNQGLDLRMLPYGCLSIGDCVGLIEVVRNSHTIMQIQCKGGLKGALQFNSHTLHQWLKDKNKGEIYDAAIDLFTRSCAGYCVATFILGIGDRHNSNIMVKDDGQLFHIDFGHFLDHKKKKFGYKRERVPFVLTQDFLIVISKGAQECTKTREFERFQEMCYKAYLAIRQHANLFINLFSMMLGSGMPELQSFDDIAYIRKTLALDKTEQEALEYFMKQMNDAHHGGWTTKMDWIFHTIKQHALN
T3 sequence (P27986 322-600 partner limits assumed): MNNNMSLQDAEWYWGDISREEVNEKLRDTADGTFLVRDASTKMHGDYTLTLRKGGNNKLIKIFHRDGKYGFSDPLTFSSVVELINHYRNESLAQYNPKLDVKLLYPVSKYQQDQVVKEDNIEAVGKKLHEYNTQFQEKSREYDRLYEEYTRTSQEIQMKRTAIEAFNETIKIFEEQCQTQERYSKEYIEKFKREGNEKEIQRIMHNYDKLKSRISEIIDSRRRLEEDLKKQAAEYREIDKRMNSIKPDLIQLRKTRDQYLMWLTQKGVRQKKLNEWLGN
T4 sequence (O00329 whole entry): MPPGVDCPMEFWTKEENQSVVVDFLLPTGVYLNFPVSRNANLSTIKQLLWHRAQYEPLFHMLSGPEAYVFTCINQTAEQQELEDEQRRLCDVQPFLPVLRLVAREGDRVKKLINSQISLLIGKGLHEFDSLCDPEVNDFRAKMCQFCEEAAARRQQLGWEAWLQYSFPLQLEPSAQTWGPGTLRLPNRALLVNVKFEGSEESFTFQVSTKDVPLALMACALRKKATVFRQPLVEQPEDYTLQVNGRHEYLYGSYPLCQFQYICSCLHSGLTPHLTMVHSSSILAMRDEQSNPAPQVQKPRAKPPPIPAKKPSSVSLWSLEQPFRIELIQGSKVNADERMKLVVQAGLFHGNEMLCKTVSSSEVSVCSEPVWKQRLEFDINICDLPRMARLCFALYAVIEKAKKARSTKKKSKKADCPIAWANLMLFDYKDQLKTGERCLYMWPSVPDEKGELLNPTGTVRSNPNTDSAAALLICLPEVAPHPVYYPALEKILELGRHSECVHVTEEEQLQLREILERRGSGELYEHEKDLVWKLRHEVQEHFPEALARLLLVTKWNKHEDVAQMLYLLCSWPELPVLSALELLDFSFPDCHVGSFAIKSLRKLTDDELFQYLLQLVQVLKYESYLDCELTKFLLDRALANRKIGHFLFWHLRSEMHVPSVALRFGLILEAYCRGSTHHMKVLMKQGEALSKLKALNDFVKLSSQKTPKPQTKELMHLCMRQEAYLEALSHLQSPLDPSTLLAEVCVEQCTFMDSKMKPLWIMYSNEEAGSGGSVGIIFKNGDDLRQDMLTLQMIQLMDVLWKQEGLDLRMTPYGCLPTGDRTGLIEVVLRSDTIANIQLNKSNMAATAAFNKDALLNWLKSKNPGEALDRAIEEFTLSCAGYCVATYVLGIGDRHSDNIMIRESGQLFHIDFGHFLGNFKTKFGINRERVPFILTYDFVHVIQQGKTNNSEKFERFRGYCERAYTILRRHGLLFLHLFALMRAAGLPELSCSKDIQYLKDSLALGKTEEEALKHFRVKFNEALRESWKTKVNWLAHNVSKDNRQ
T4 sequence (P27986 322-600 partner limits assumed): as the sequence (P27986 322-600 partner limits assumed) above
T2 sequence (P42338 whole entry): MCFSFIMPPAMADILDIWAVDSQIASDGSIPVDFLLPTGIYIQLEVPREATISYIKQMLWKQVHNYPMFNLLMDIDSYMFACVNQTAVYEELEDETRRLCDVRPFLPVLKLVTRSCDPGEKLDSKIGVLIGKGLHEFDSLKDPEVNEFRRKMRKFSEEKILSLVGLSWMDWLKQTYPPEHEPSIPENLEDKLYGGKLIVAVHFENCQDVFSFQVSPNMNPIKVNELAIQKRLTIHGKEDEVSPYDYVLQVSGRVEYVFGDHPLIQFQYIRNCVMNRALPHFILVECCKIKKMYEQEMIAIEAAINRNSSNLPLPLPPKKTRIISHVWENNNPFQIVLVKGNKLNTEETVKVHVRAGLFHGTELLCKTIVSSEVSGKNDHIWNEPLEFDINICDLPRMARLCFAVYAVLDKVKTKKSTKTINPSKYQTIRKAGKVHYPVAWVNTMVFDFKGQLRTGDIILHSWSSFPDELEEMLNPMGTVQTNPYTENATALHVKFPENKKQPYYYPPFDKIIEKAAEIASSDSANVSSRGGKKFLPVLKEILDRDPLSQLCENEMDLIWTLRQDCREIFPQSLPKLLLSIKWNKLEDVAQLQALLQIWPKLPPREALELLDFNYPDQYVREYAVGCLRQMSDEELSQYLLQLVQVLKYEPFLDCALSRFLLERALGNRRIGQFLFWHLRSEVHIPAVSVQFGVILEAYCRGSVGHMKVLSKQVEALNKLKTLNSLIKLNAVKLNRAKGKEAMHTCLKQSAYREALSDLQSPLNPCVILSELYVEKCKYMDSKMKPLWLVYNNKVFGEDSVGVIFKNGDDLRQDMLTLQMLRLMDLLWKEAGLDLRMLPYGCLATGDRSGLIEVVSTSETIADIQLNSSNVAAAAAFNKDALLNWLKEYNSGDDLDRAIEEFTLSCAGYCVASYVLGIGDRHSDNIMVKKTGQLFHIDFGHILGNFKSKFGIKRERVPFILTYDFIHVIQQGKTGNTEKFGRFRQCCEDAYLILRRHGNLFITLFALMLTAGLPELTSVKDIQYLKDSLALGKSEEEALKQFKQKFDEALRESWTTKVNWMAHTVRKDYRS
T2 sequence (P27986 322-600 partner limits assumed): as the sequence (P27986 322-600 partner limits assumed) above
T1 sequence (P48736 whole entry): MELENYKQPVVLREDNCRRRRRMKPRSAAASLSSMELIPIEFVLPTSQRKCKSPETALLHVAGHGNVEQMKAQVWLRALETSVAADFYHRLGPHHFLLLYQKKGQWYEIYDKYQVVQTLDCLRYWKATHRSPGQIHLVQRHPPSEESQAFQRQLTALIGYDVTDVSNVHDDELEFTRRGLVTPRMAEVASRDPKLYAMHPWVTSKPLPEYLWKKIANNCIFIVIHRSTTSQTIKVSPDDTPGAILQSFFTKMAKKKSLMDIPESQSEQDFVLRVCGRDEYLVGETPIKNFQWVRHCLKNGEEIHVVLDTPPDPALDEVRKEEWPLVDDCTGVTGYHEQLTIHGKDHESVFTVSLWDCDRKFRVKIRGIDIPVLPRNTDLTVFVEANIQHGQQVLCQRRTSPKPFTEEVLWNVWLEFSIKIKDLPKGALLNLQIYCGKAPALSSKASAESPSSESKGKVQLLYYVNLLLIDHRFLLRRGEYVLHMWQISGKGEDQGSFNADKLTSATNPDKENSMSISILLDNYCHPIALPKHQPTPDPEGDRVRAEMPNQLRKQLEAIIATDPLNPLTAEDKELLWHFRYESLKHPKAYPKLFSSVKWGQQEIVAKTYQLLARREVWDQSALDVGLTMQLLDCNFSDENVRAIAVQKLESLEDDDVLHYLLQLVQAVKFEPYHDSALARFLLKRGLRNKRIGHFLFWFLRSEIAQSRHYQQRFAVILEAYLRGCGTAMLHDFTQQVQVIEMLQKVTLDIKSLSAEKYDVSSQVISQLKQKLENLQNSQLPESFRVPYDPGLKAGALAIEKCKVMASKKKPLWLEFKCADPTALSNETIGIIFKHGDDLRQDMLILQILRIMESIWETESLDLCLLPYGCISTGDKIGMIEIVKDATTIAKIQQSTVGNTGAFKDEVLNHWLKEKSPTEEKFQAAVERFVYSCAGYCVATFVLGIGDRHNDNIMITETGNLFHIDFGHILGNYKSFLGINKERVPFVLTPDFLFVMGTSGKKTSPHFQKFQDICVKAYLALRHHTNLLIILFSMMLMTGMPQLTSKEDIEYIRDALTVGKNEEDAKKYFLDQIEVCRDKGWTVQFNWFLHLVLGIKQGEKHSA

Consider `Cc1ccc([N+](=O)[O-])cc1S(=O)(=O)N(C)/N=C/c1cnc2ccc(Br)cn12` [J27, N'-[(1E)-(6-Bromoimidazo [1,2-a]pyridin-3-yl)methylene]-N,2-dimethyl-5-nitrobenzenesulfonohydrazide hydrochloride, reference compound], for which the IC50 against p110γ stood at 75 nM.
On to `Cc1ccc([N+](=O)[O-])cc1S(=O)(=O)N(Cc1ccccc1)/N=C/c1cnc2ccc(Br)cn12` [J30], for which the IC50 at p110γ was 3160 nM; on p110β it was 6310 nM; against p110α it was 730 nM; against p110δ, 781 nM. At p110α (compared to J32), the “drop/decrease in inhibitory activity for PI3Kα” value is listed as 6 to 49 fold.
For `CCN(/N=C/c1cnc2ccc(Br)cn12)S(=O)(=O)c1cccc([N+](=O)[O-])c1` [J37], in that order: 801 nM, 3060 nM, 55 nM, 476 nM and “greater than 3.6 fold”.
On the same counts, the results for `CCN(/N=C/c1cnc2ccc(Br)cn12)S(=O)(=O)c1ccccc1C` [J40] are 180000 nM, 61000 nM, 20000 nM, 53000 nM and greater than 1333 fold.
Turning to `CCN(/N=C/c1cnc2ccc(Br)cn12)S(=O)(=O)c1cc(S(C)(=O)=O)ccc1C` [J41], the IC50 stood at 253000 nM against p110γ, 235000 nM against p110β, 23200 nM at p110α and 3550 nM against p110δ. Further, the “effect of substitution on PI3Kα potency/selectivity (in words)” value at p110α was “impaired potency”.
For `CCOC(=O)CN(/N=C/c1cnc2ccc(Br)cn12)S(=O)(=O)c1cc([N+](=O)[O-])ccc1C` [J43], in that order: 930 nM, 1900 nM, 154 nM, 363 nM and “did not increase potency”.
On the same counts, the results for `CCN(/N=C/c1cnc2ccc(Br)cn12)S(=O)(=O)c1cc(N)ccc1C` [J44] are 30000 nM, 21000 nM, 4400 nM, 28000 nM and “impaired potency”.
Consider `CCN(/N=C/c1cnc2ccc(Br)cn12)C(=O)c1cc([N+](=O)[O-])ccc1C` [J45], for which the half-maximal inhibitory concentration (IC50) was determined as 132 nM against p110γ, 75 nM against p110β, 20 nM against p110α and 16 nM at p110δ. Besides, on p110α, the “effect of substitution on PI3Kα potency/selectivity (in words)” value is listed as “decreased selectivity for the latter”.
For the compound `Cc1ccc([N+](=O)[O-])cc1S(=O)(=O)N(CC(C)C)/N=C/c1cnc2ccc(Br)cn12` [J46], the IC50 came to 1750 nM against p110γ, 2970 nM against p110β, 309 nM against p110α and 485 nM on p110δ. Also, the “drop/decrease in inhibitory activity for PI3Kα” value on p110α (compared to J32) is reported as 6 to 49 fold.
With `Cc1ccc([N+](=O)[O-])cc1S(=O)(=O)N(CCC#N)/N=C/c1cnc2ccc(Br)cn12` [J47], the IC50 against p110γ came out at 192 nM; against p110β it was 149 nM; against p110α, 25 nM; against p110δ, 169 nM. Further, the “effect of substitution on PI3Kα potency/selectivity (in words)” value at p110α is given as “did not increase potency”.
With `Cc1ccc([N+](=O)[O-])cc1S(=O)(=O)N(/N=C/c1cnc2ccc(Br)cn12)C(C)C` [J55], the IC50 against p110γ was determined as 3340 nM; at p110β it was 2420 nM; at p110α, 93 nM; against p110δ, 760 nM. Moreover, at p110α (compared to J32), the “drop/decrease in inhibitory activity for PI3Kα” value was in the range of 6 to 49 fold.
As to `CCN(/N=C/c1cnc2ccc(Br)cn12)S(=O)(=O)c1cc(C(=O)O)ccc1C` [J100], the half-inhibitory concentration (IC50) against p110γ was 5120 nM; against p110β, 2000 nM; against p110α, 121 nM; on p110δ it was 173 nM. In addition, the “effect of substitution on PI3Kα potency/selectivity (in words)” value at p110α is “impaired potency”.
On to `CCN(/N=C/c1cnc2ccc(Br)cn12)S(=O)(=O)c1cc([N+](=O)[O-])ccc1Cl` [J101], for which the IC50 was determined as 812 nM against p110γ, 936 nM at p110β, 22 nM at p110α and 266 nM on p110δ. For the same compound, the “effect of substitution on PI3Kα potency/selectivity (in words)” value at p110α was “maintain potency and isoform selectivity”.
As to `CCN(/N=C/c1cnc2ccc(Br)cn12)S(=O)(=O)c1cc([N+](=O)[O-])c(F)cc1C` [J120], the IC50 at p110γ is 1800 nM; on p110β it was 1900 nM; at p110α, 24 nM; on p110δ it was 470 nM. In addition, the “effect of substitution on PI3Kα potency/selectivity (in words)” value on p110α was “did not impact the inhibitory activity for PI3Kα substantially”.
For `CCN(/N=C/c1cnc2ccc(Br)cn12)S(=O)(=O)c1cc(C(N)=O)ccc1Cl` [J125], in that order: 1000 nM, 600 nM, 76 nM, 38 nM and “impaired potency”.
For `CCN(/N=C/c1cnc2ccc(Br)cn12)S(=O)(=O)c1cc([N+](=O)[O-])c(O)cc1C` [J129], the IC50 against p110γ was 150 nM; at p110β, 510 nM; against p110α it was 20 nM; against p110δ it was 66 nM. In addition, the “effect of substitution on PI3Kα potency/selectivity (in words)” value at p110α is recorded as “did not impact the inhibitory activity for PI3Kα substantially”.
For `CCN(/N=C/c1cnc2ccc(Br)cn12)S(=O)(=O)c1cc([N+](=O)[O-])c(NCCOC)cc1C` [J157], in that order: 1000 nM, 3000 nM, 24 nM, 430 nM and “did not impact the inhibitory activity for PI3Kα substantially”.
For `CCN(/N=C/c1cnc2ccc(Br)cn12)S(=O)(=O)c1cc([N+](=O)[O-])c(NCCOCCO)cc1C` [J158], in that order: 200 nM, 3500 nM, 17 nM, 440 nM and “did not impact the inhibitory activity for PI3Kα substantially”.
On to `CCN(/N=C/c1cnc2ccc(Br)cn12)S(=O)(=O)c1cc([N+](=O)[O-])c(NCC(=O)O)cc1C` [J159], for which the IC50 at p110γ was 32 nM; against p110β, 1880 nM; at p110α, 4 nM; on p110δ it was 348 nM. The “increase of inhibitory activity for PI3Kα” value at p110α (compared to J32) was 3.8 fold.
As to `CCN(/N=C/c1cnc2ccc(Br)cn12)S(=O)(=O)c1cc([N+](=O)[O-])c(NC(C)C(=O)O)cc1C` (stereo not drawn) [J160], the IC50 at p110γ was determined as 140 nM; on p110β, 8200 nM; on p110α, 11 nM; against p110δ, 230 nM.
Turning to `CCN(/N=C/c1cnc2ccc(Br)cn12)S(=O)(=O)c1cc([N+](=O)[O-])c(NCC(=O)OC)cc1C` [J161], the IC50 at p110γ is 940 nM; on p110α it was 33 nM; against p110δ, 16000 nM. The “effect of substitution on PI3Kα potency/selectivity (in words)” value at p110α was “did not impact the inhibitory activity for PI3Kα substantially”.
